From ChEMBL document CHEMBL3727355, “Chemokine receptor activity regulator” (2014)

Molecular target: T1, C-C chemokine receptor type 10 (Homo sapiens) (UniProt P46092)
T1 sequence (whole entry): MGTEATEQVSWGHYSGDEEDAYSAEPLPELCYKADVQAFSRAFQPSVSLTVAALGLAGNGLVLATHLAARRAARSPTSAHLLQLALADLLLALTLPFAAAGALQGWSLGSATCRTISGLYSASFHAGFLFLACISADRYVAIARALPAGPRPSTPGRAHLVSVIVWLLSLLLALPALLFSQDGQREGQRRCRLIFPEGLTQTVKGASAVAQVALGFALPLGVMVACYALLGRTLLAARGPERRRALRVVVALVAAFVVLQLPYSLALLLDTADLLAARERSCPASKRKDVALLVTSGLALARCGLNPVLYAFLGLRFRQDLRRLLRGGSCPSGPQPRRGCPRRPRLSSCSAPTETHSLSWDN
Assay: Antagonist activity against human CCR10 expressed in human KJMGER8 cells assessed as inhibition of human recombinant CTACK-induced increase in intracellular calcium level at 100 nmol/L pre-incubated for 30 mins before human recombinant CTACK stimulation for 5 mins by FLIPR assay
Type: functional, cell-based

| inhibition [%] | Structure (SMILES) |
| --- | --- |
| 98.3 | CCC(=O)NS(=O)(=O)c1cnn2c(Nc3ccc(C)cc3Cl)c(C(=O)N3CCC(c4ccc(F)cc4)CC3)cnc12 |
| > 100 | CONS(=O)(=O)c1cnn2c(Nc3cc(Cl)ccc3Cl)c(C(=O)N3CCC(c4ccc(F)cc4)CC3)cnc12 |
| > 100 | Cc1ccc(Cl)c(Nc2c(C(=O)N3CCC(c4ccc(F)cc4)CC3)cnc3c(S(=O)(=O)NC(N)=O)cnn23)c1 |
| 28.9 | COCCNS(=O)(=O)c1cnn2c(Nc3ccccc3Cl)c(C(=O)N3CCC(c4ccc(F)cc4)CC3)cnc12 |
| > 100 | Cc1cc(F)ccc1Nc1c(C(=O)N2CCC(c3ccc(F)cc3)CC2)cnc2c(S(=O)(=O)NC3CC3)cnn12 |
| > 100 | O=C(c1cnc2c(S(=O)(=O)Nc3nncs3)cnn2c1Nc1cc(Cl)ccc1Cl)N1CCC(c2ccc(F)cc2)CC1 |
| > 100 | CCC(=O)NS(=O)(=O)c1cnn2c(Nc3cc(C)ccc3F)c(C(=O)N3CCC4(CC3)OCc3ccccc34)cnc12 |
| 95.1 | CCNC(=O)NS(=O)(=O)c1cnn2c(NCc3ccccc3)c(C(=O)N3CCC(c4ccccc4)CC3)cnc12 |
| > 100 | CC(=O)NS(=O)(=O)c1cnn2c(Nc3cc(Cl)ccc3Cl)c(C(=O)N3CCC(c4ccc(F)cc4)CC3)cnc12 |
| > 100 | CCC(=O)NS(=O)(=O)c1cnn2c(Nc3ccc(C)cc3F)c(C(=O)N3CCC4(CC3)OCc3ccccc34)cnc12 |
| > 100 | O=C(NC1CC1)NS(=O)(=O)c1cnn2c(Nc3ccc(F)cc3Cl)c(C(=O)N3CCC(c4ccc(F)cc4)CC3)cnc12 |
